Assay [1] addresses T1, Aminopeptidase B (Mus musculus, UniProt Q8VCT3).
T1 sequence (Q8VCT3 whole entry): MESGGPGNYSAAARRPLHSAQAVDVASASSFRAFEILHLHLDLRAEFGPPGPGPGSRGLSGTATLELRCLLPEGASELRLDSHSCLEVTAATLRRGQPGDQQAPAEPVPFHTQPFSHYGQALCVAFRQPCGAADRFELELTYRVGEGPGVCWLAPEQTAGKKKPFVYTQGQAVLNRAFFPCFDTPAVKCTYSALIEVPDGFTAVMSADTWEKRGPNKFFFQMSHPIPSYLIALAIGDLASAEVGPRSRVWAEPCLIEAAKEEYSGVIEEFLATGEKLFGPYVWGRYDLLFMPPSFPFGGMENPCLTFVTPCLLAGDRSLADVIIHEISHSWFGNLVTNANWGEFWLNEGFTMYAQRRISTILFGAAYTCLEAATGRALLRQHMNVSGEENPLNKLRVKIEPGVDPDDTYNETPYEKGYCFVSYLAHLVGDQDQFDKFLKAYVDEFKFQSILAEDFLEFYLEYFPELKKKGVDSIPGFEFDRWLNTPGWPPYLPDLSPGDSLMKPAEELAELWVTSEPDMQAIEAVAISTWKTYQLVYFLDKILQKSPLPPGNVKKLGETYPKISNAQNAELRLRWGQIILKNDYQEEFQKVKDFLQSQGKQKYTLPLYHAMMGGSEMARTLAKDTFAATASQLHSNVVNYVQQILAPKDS
Put plainly: Inhibition of Aminopeptidase B in murine L-cells by Aoyagi method.

For assay [2], the target named is T2, Aminopeptidase N (Homo sapiens, UniProt P15144). Put plainly: Inhibition of Aminopeptidase M.
The target of assay [3] is T2, Aminopeptidase N. Put plainly: Concentration required for inhibitory potency on Aminopeptidase M using L-leucine-2-naphthylamide hydrochloride as substrate(0.5 mM, Km=0.6*10e-4 M).
The target of assay [4] is T1, Aminopeptidase B. Put plainly: Concentration required for inhibitory potency against Aminopeptidase B in murine L-cells by aoyagi method using L-lysine-2-naphthylamide hydrochloride as substrate (0.5mM, Km=0.9*10e-4 M).

Residues, ends and D or L forms follow the SMILES beside them.

T2 sequence (P15144 whole entry): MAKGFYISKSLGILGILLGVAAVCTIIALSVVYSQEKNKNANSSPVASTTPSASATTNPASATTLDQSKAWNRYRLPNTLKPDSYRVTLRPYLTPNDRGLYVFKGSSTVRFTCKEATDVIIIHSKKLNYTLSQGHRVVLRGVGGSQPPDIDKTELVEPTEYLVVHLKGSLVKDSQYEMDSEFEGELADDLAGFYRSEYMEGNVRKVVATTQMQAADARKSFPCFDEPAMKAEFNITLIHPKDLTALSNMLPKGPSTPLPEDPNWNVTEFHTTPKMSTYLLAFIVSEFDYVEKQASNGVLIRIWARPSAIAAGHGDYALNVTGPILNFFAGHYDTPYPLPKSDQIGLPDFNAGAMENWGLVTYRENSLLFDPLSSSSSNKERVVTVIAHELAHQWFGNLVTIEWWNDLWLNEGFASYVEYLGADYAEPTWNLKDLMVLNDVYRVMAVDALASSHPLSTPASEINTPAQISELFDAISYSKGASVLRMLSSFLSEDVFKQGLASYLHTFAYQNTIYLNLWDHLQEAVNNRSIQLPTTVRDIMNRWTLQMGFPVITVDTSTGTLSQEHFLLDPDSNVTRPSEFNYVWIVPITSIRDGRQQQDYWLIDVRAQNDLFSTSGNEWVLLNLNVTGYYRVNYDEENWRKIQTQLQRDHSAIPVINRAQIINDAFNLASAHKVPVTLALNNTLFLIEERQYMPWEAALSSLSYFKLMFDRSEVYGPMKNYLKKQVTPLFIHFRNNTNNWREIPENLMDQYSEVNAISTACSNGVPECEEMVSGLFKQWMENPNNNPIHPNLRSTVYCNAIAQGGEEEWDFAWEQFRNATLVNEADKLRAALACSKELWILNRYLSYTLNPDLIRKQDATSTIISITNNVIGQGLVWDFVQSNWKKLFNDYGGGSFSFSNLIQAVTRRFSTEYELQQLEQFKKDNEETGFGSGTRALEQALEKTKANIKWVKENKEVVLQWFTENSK

Turning to `COC(=O)[C@H](CC(C)C)NC(C#N)[C@@H](N)Cc1ccccc1` (some centres not stated), in assay [1], the IC50 (usually the concentration at which inhibition is half-maximal) amounted to 50 µM. In other words, the double-digit micromolar range. For the compound `COC(=O)[C@H](Cc1ccccc1)N[C@H](C#N)[C@@H](N)Cc1ccccc1`, it took 293 µM to reach half-maximal inhibition in assay [1] (IC50). Compared with the last compound, the IC50 is about 5.9-fold higher. In the case of `COC(=O)[C@@H]1CCCN1C(=O)[C@H](CC(C)C)N[C@@H](C#N)[C@@H](N)Cc1ccccc1`, the IC50 in assay [1] came out at 28 µM. Compared with the last compound, the IC50 is about 10-fold lower. On to `COC(=O)[C@@H](NC(C#N)[C@H](Cc1ccccc1)NC(=O)OC(C)(C)C)C(C)C` (some centres not stated), for which the concentration for half-maximal inhibition (IC50) in assay [1] and in assay [2] was 1000 µM in each case.

`COC(=O)[C@@H](NC(C#N)[C@@H](N)Cc1ccccc1)C(C)C` (some centres not stated) had an IC50 in assay [1] of 36 µM. Consider `COC(=O)[C@H](CCCCN)NC(C#N)[C@@H](N)Cc1ccccc1` (some centres not stated), for which, in assay [1], the IC50 came out at 44 µM. In assay [1], `COC(=O)[C@H](Cc1ccccc1)N[C@@H](C#N)[C@@H](N)Cc1ccccc1` showed an IC50 of 221 µM. This IC50 lies about 5-fold higher than the previous one. For `CC(C)C[C@H](NC(=O)[C@@H](N)Cc1ccccc1)C(=O)O` (H-Phe-Leu-OH), the IC50 in assay [1] and in assay [2] was 1000 µM each time. On to `COC(=O)[C@@H]1CCCN1C(=O)[C@H](CC(C)C)NC(=O)[C@@H](N)Cc1ccccc1` (H-Phe-Leu-Pro-OMe), for which the 50% inhibitory concentration (IC50) in assay [1] is 824 µM; in assay [2], 793 µM.

With `COC(=O)[C@H](CC(C)C)NC(C#N)[C@H](Cc1ccccc1)NC(=O)OC(C)(C)C` (mixture of isomers), the IC50 in assay [1] and in assay [2] was 1000 µM in each case. Regarding `COC(=O)[C@H](CCCCN)NC(C#N)[C@H](Cc1ccccc1)NC(=O)OC(C)(C)C` (mixture of isomers), the IC50 in assay [1] and in assay [2] was 1000 µM in each case. Take `COC(=O)C1CCCN1C(=O)[C@H](CC(C)C)NC(C(N)=O)[C@@H](N)Cc1ccccc1` (single isomer, unassigned) [listing 1 of 2 here]: the IC50 in assay [1] and in assay [2] was 1000 µM throughout. Consider `COC(=O)C1CCCN1C(=O)[C@H](CC(C)C)NC(C(N)=O)[C@@H](N)Cc1ccccc1` (single isomer, unassigned) [listing 2 of 2 here], for which the IC50 in assay [3] came out at 783 µM; in assay [4], 1000 µM.

Regarding `COC(=O)[C@H](CC(C)C)NC(C(N)=O)[C@@H](N)Cc1ccccc1` (single isomer, unassigned), the IC50 in assay [1] and in assay [2] was 1000 µM in each case. In the case of `COC(=O)C1CCCN1C(=O)[C@H](CC(C)C)NC(C#N)[C@@H](N)Cc1ccccc1` (single isomer, unassigned), the IC50 in assay [1] amounted to 14 µM.

For the compound `COC(=O)C1CCCN1C(=O)[C@H](CC(C)C)NC(C#N)[C@H](Cc1ccccc1)NC(=O)OC(C)(C)C` (single isomer, unassigned; form 1), the IC50 in assay [1] and in assay [2] was 1000 µM in each case. `COC(=O)[C@H](Cc1ccccc1)NC(C#N)[C@H](Cc1ccccc1)NC(=O)OC(C)(C)C` (single isomer, unassigned; form 1): the IC50 in assay [1] and in assay [2] was 1000 µM in each case.

Regarding `COC(=O)C1CCCN1C(=O)[C@H](CC(C)C)NC(C#N)[C@H](Cc1ccccc1)NC(=O)OC(C)(C)C` (single isomer, unassigned; form 2), the IC50 in assay [1] and in assay [2] was 1000 µM throughout. Take `COC(=O)[C@H](Cc1ccccc1)NC(C#N)[C@H](Cc1ccccc1)NC(=O)OC(C)(C)C` (single isomer, unassigned; form 2): the IC50 in assay [1] and in assay [2] was 1000 µM each time.

In assay [1], `CC(C)C[C@H](NC(=O)[C@@H](O)[C@H](N)Cc1ccccc1)C(=O)O` [UBENIMEX] showed an IC50 of 6 µM.

(Values after ChEMBL document CHEMBL1127914, “Pseudopeptide inhibitors of aminopeptidases containing the [CH(CN)NH] surrogate as a transition-state MIMIC” (Bioorg Med Chem Lett, 1994).)
